Data taken from US6770122B2, “Copper deposition using copper formate complexes” (E. I. du Pont de Nemours and Company, priority 2001, dated 2004).

Assays:
[1] = Procedure: A common technique used in dissolving metal complexes in supercritical carbon dioxide is to add a co-solvent (Cross et al.). The requirements of a co-solvent have been defined (Cross et al.). Methanol and other alcohols are commonly used. […] In these measurements, the complex was dissolved in 0.25-1 mL of methanol or 1-butanol and then shaken with 5-10 mL hexane; solubility was indicated by formation of a homogeneous blue solution. Alcohols such as methanol and 1-butanol are totally miscible with supercritical carbon dioxide at ambient temperatures and high pressure (Cross et al). Between 2 to 5% cosolvent is typically used in order to retain supercritical properties of the solvent at reasonable temperatures and pressures.
[2] = Solubility in hexane, judged by blue colour of the solution; settings: no co-solvent, qualitative
Procedure: Copper formate complexes were prepared using 1-octyl-2-ethyl-4-methylimidazole and 1-hexyl-2-ethyl-4-methylimidazole as ligands.

| solubility in hexane with co-solvent (or supercritical carbon dioxide with co-solvent) [1] | Compound | solubility in hexane (blue color of solution) [2] | solubility in hexane (blue color of solution) ([2]; listed as Cu(1-octyl-4-ethyl-2-methylimidazole)2(HCOO)2H2O) |
| --- | --- | --- | --- |
| 1-(2-ethylhexyl)-2-ethyl-4-methyl- | CCCCC(CC)Cn1cc(C)nc1CC (centres unmarked) [1-(2-ethylhexyl)-2-ethyl-4-methylimidazole] |  |  |
|  | Cu(1-octyl-4-ethyl-2-methylimidazole)2(HCOO)2H2O | dissolves in hexane to yield a blue solution | soluble in hexane |
| 4-t-butylpyridine | CC(C)(C)c1ccncc1 [4-t-butylpyridine] |  |  |
| 1-(2-ethylhexyl)pyrazole | CCCCC(CC)Cn1cccn1 (centres unmarked) [1-(2-ethylhexyl)pyrazole] |  |  |
